From patent US20090217402A1, “METHODS AND COMPOSITIONS FOR MODULATING THE ACTIVITY OF PEPTIDASES IN MACROPHAGE AND MACROPHAGE-LIKE CELLS” (Emory University, priority 2005, published 2009) come the findings set out here.

The subject of this test is B16-F10 melanoma cells. As to the kind of experiment: B16-F10 melanoma tumor growth in wild type and ACE 10/10 mice with co-administered drug. In kind it is in vivo, mouse. The conditions noted are these: intradermal B16-F10 melanoma. Here is the method: Quantitation of B16-F10 tumor growth in wild type and ACE 10/10 mice was also conducted between groups in which the ACE inhibitor captopril was also administered. […] This experiment establishes that it is the presence of ACE in the ACE 10/10 mice that is important in the observed effects on tumor growth compared to wild-type mice.
B16-F10 tumor protocol. B16-F10 melanoma cell line was obtained from ATCC (American Type Culture Collection, Manassas, Va., USA). Cells were cultured in DMEM supplemented with 4 mM L-glutamine, 4.5 g/l glucose, 10% FBS, and antibiotics under humidified air with 5% CO2 at 37° C. […] The supernatant was removed, cell pellets were resuspended in PBS, and the cell number was counted.
Mice aged 8 to 12 weeks received exponentially growing cells (1×10^6) interdermally into the dorsal skin using a disposable 27-gauge needle under anesthesia (28 mg/kg avertin, intraperitoneally). Measurements of tumor size (longest and shortest diameters) were done using calipers at the 11th and 14th day, and body weight was measured at the day of inoculation (Day 0) and at harvesting (the 14th day), respectively. Tumor volume was calculated by the formula for a prolate spheroid according to the equation (L [longest diameter] H S2 [shortest diameter] H 0.52)=tumor volume.

“Also recorded” adds a separate entry of the source.

`C[C@H](CS)C(=O)N1CCC[C@H]1C(=O)O` [captopril]: the “B16-F10 tumor growth (resistance of ACE 10/10 mice to melanoma)” value is reported as “comparable to wild-type mice in terms of susceptibility to tumor growth”.
With `CCCCc1nc(Cl)c(CO)n1Cc1ccc(-c2ccccc2-c2nn[nH]n2)cc1` [losartan] the entry was “does not inhibit the ability of the ACE 10/10 mice to resist melanoma; also recorded: did not inhibit the ability of the ACE 10/10 mice to resist melanoma growth”.
